{"source": "patent US6646006B2", "about": "“Enhancement of vascular function by modulation of endogenous nitric oxide production or activity” (The Board of Trustees of the Leland Stanford Junior …, priority 1993, dated 2003)", "key": {"[1]": {"system": "Smooth muscle cells (SMC)", "experiment": "Oxidized LDL-exposed aortic smooth muscle cells: MCP-1, superoxide anion, NFκB", "type": "cell-based, rabbit", "details": "DETA-NONOate 100 μM pre-exposure, oxLDL 30 μg/ml", "description": "(§1) Methods and Results. Smooth muscle cells (SMC) were isolated from normal rabbit aortae by explant method. Cells were then exposed to oxidized LDL (30 μg/ml) (which is known to induce vascular cells to synthesize MCP-1). […] All of these effects of oxidized LDL cholesterol were reduced by previous exposure of the SMC to the NO-donor DETA-NONOate (100 μM) (p<0.05). To determine if NO exerted its effect at a transcriptional level, SMC and COS cells were transfected with a 400 bp fragment of the MCP-1 promoter. Enhanced promoter activity by oxLDL was inhibited by DETA-NO."}, "MCP-1 promoter": {"system": "MCP-1 promoter", "experiment": "MCP-1 promoter activity in transfected SMC and COS cells", "type": "cell-based", "details": "400 bp promoter fragment", "description": "as §1"}, "[2]": {"system": "hypercholesterolemic rabbits", "experiment": "Oral L-lysine in cholesterol-fed rabbits: vasorelaxation and histomorphometry", "type": "in vivo, rabbit", "details": "ten weeks", "excerpt": "FIG. 9 is a set of dose-response curves showing the effect of chronic lysine administration on endothelium dependent vasodilation in hypercholesterolemic rabbits. […] Chronic administration of lysine was just as effective as arginine in restoring vascular function and structure. (See Ex. 14)\nL-lysine is a basic amino acid like L-arginine, but is not known to be metabolized by NO synthase to NO. Therefore, the following results were unexpected. New Zealand white rabbits were fed a normal or high cholesterol chow (n=18). Half of the animals on the cholesterol diet also received oral L-lysine. After ten weeks, the thoracic aortae were harvested and bioassayed for vascular NO synthesis, and histomorphometry to assess lesion formation was performed as described above."}, "platelets": {"system": "platelets", "experiment": "ADP-initiated platelet aggregation (nephelometry), platelets from treated rabbits", "type": "in vivo, rabbit", "details": "N-methylarginine 10^−4 M in vitro", "description": "The effect of L-arginine supplementation on platelet reactivity in rabbits that had normal chow (Control; n=6), a 1% cholesterol diet (Chol; n=5), or a 1% cholesterol diet supplemented with oral arginine (Arg; n=6), as detailed above, was examined. Arterial blood obtained after central ear artery cannulation was anticoagulated with 13 mM sodium citrate. Platelet-rich suspension was prepared by washing platelets in calcium-free Krebs-Henseleit solution and resuspending them in Tyrode's solution with albumin. Aggregation was initiated by addition of adenosine diphosphate and monitored by standard nephelometric techniques. In platelets derived from Chol animals, aggregation was not different in rate or maximum extent in comparison to platelets from Control animals (A, in FIG. 2). By contrast, aggregation of platelets from Arg animals was reduced by 50% (B, in FIG. 2).\nTherefore, the anti-platelet effect of chronic oral arginine administration can be credited to an increased synthesis of endogenous NO. Furthermore, NO synthesis may be induced in both the platelets and the endothelium."}, "[3]": {"system": "human aortic endothelial cells (HAEC)", "experiment": "Flow-exposed human aortic endothelial cells: THP-1 monocyte binding after oxLDL or LPS/TNF", "type": "cell-based", "details": "oxLDL 30 μg/ml", "description": "FIG. 6. Stimulation of cultured endothelial cells with fluid flow causes them to secrete nitric oxide. Flow-induced secretion of nitric oxide decreases endothelial adhesiveness induced by oxidized LDL cholesterol (oxLDL; 30 μg/ml). Exposure of human aortic endothelial cells to oxLDL increased the ex vivo binding of monocytes when compared to Control. In comparison to cells not exposed to flow (static), previous exposure to flow inhibited the monocyte adhesion induced by oxLDL. These effects of flow were blocked by NO synthase inhibitors and mimicked by NO donors (PAPA-NO) or cyclic GMP (cGMP). Bars represent mean±SEM. *p<0.05; **p<0.01. (See Ex. 8)\nMethods and Results: Confluent monolayers of human aortic endothelial cells (HAEC) were exposed to static or fluid flow conditions for 4 hours (fluid flow stimulates the production of endogenous nitric oxide). Medium was then replaced and cells were then incubated with native LDL (50 μg/ml), oxidized LDL (30 μg/ml), or LPS (10 ng/ml)+TNF-α (10 U/ml) for an additional 4 hours. Functional binding assays utilizing THP-1 monocytes were then performed. Superoxide production by HAECs was monitored by lucigenin chemiluminescence and expression of the adhesion molecules VCAM-1 and ICAM-1 was quantitated by flow cytometry. […] Previous exposure to fluid flow inhibited endothelial adhesiveness for monocytes (FIG. 6) and the other sequelae of exposure to cytokines or oxidized lipoprotein."}, "[4]": {"system": "hypercholesterolemic rabbits", "details": "vs 1% cholesterol diet alone, ten weeks", "excerpt": "At ten weeks animals were sacrificed for studies of platelet and vascular reactivity, and histomorphometry."}}}
{"compound": "NCCN(CCN)/[N+]([O-])=N/O", "note": "[DETA-NONOate]", "values": [{"measurement": "activity of NFκB induced by oxidized LDL", "setting": "[1]", "result": "reduced"}, {"measurement": "expression of MCP-1 induced by oxidized LDL", "setting": "[1]", "result": "reduced"}, {"measurement": "generation of superoxide anion induced by oxidized LDL", "setting": "[1]", "result": "reduced"}, {"measurement": "MCP-1 promoter activity enhanced by oxLDL", "setting": "MCP-1 promoter", "result": "inhibited"}]}
{"compound": "NCCCC[C@H](N)C(=O)O", "note": "[L-lysine]", "values": [{"measurement": "vascular NO activity (endothelium-dependent vasorelaxation)", "setting": "[2]", "result": "just as effective as L-arginine"}, {"measurement": "vascular lesion formation / plaque area", "setting": "[2]", "result": "marked reduction"}, {"measurement": "vascular NO activity (endothelium-dependent vasorelaxation)", "setting": "[2]; listed as lysine", "result": "improved"}]}
{"compound": "CN[C@@H](CCCNC(=N)N)C(=O)O", "note": "[N-methylarginine, reference compound]", "values": [{"measurement": "reversal of the arginine-induced reduction of platelet reactivity", "setting": "platelets", "result": "could be reversed"}, {"measurement": "reversal of the arginine-induced reduction of platelet reactivity", "setting": "platelets; listed as LNMMA", "result": "reverses"}]}
{"compound": "CCCN(CCCN)/[N+]([O-])=N/O", "note": "[PAPA-NONOate]", "values": [{"measurement": "mimicry of the effects of flow on monocyte adhesion", "setting": "[3]", "result": "mimicked the effects of flow"}, {"measurement": "mimicry of the effects of flow on monocyte adhesion", "setting": "[3]; listed as PAPA-NO", "result": "mimicked"}]}
{"compound": "Nc1nc2c(ncn2[C@@H]2O[C@@H]3COP(=O)(O)O[C@H]3[C@H]2O)c(=O)[nH]1", "note": "[cGMP, cyclic guanosine monophosphate]", "values": [{"measurement": "mimicry of the effects of flow on monocyte adhesion", "setting": "[3]", "result": "mimicked"}]}
{"compound": "CSCC[C@H](N)C(=O)O", "note": "[methionine]", "values": [{"measurement": "endothelium-dependent relaxation", "setting": "[4]", "result": "not different"}, {"measurement": "intimal thickness", "setting": "[4]", "result": "not different"}, {"measurement": "platelet aggregation", "setting": "[4]", "result": "not different"}]}
